In ChEMBL document CHEMBL1201862, “PubChem BioAssay data set” (2004):
Active and inactive are the calls of the source.

Experiments:
[1] = molecular target: Serine hydrolase RBBP9 (Homo sapiens, UniProt O75884); assay: human RBBP9 inhibitor potency, late-stage follow-up, biochemical, gel-based ABPP, IC50, panel member Panel member description: RBBP9 IC50 Gel-based ABPP Assay (AID 2254)
[2] = molecular target: Luciferin 4-monooxygenase (Photinus pyralis, UniProt P08659); assay: In vitro luciferase assay using purified luciferase. [Related pubchem assays: 1299, 1270, 1295, 1375, 1287, 1281, 1293, 1291, 1289, 1280, 465, 1364, 1282, 1372, 1365, 1370, 1367, 1366, 1266, 1373, 1292, 1290, 1302, 1371, 1283, 1271, 1294, 1374, 1368, 1369 ]
Luciferin 4-monooxygenase, sequence (P08659 whole entry): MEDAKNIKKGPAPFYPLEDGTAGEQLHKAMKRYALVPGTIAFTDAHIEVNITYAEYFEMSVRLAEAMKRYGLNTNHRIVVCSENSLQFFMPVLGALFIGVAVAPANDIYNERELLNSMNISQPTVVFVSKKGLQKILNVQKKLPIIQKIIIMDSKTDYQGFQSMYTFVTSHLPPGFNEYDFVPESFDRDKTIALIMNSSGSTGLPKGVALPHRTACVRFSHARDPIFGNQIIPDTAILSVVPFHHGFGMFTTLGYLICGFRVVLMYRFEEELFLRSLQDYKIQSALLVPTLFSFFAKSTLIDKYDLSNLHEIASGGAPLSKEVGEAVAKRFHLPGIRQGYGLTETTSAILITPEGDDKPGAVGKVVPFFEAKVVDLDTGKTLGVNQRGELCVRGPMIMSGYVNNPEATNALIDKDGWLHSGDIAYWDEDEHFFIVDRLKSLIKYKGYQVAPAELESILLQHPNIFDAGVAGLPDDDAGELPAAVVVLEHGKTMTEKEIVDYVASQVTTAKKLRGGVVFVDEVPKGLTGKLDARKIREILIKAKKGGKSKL

[3] = test system: HEK293; assay: PMA/Ionomycin induced NF-kB luciferase assay in 293- NF-kB-Luc stable cells. [Related pubchem assays: 1299, 1270, 1295, 1375, 1287, 1281, 1293, 1291, 1289, 1280, 465, 1364, 1282, 1372, 1365, 1370, 1367, 1366, 1269, 1373, 1292, 1290, 1302, 1371, 1283, 1271, 1294, 1374, 1368, 1369 ]; format: functional, cell-based; conditions: Homo sapiens
[4] = test system: HEK293; assay: TNF Induced NF-kB Luciferase in 293-NF-kB-Luc Stable Cells. [Related pubchem assays: 1266, 1299, 1269, 1373, 1292, 1290, 1302, 1371, 1283, 1270, 1295, 1271, 1375, 1294, 1374, 1281, 1293, 1291, 1289, 1280, 465, 1368, 1364, 1282, 1372, 1365, 1369, 1370, 1367, 1366 ]; format: functional, cell-based; conditions: Homo sapiens
[5] = test system: HEK293; assay: Cytotoxicity assay in HEK293 cells. [Related pubchem assays (depositor defined):AID1266, AID1269, AID1270, AID1271, AID1280, AID1281, AID1282, AID1283, AID1287, AID1289, AID1290, AID1291, AID1292, AID1293, AID1294, AID1295, AID1299, AID1302, AID1364, AID1365, AID1366, AID1367, AID1369, AID1370, AID1371, AID1372, AID1373, AID1374, AID1375, AID1384 …; format: functional, cell-based; conditions: Homo sapiens
[6] = test system: BJ; assay: cytotoxicity toward BJ-TERT-LT-ST fibroblasts, dose response, cell-based, RAS-independent, luminescence (AID 1935); format: functional; conditions: Homo sapiens;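 also: BJ fibroblasts immortalized with TERT plus LT and ST oncogenes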
[7] = test system: BJ; assay: cytotoxicity toward Ras-transformed BJeLR fibroblasts, dose response, cell-based, alamar blue fluorescence, cherrypicked samples (AID 2631); format: functional; conditions: Homo sapiens;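 also: confirmatory dose-response assay in RAS-dependent BJ fibroblasts engineered with TERT, LT and ST, with cytotoxicity read by fluorescence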
[8] = test system: INS1; assay: beta cell apoptosis inhibitors, cytokine rescue, dose response, luminescence, retest (AID 449756); format: functional, cell-based; conditions: Rattus norvegicus;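 also: cell death triggered by IL-1 beta plus TNF-alpha plus IFN-gamma mixture; protective hits raise ATP signal compared with cytokine alone wells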
[9] = test system: Streptococcus sp. 'group A'; assay: growth inhibition of control SK(-) GAS strain, dose response, counter-screen for streptokinase expression inhibitor project, luminescence, kanamycin, BacTiterGlo, confirmation (AID 1900); format: functional, organism-based
[10] = cells; format: functional, cell-based
[11] = molecular target: Beta-galactosidase (Escherichia coli, UniProt Q8VNN2); format: functional
Beta-galactosidase, sequence (Q8VNN2 whole entry): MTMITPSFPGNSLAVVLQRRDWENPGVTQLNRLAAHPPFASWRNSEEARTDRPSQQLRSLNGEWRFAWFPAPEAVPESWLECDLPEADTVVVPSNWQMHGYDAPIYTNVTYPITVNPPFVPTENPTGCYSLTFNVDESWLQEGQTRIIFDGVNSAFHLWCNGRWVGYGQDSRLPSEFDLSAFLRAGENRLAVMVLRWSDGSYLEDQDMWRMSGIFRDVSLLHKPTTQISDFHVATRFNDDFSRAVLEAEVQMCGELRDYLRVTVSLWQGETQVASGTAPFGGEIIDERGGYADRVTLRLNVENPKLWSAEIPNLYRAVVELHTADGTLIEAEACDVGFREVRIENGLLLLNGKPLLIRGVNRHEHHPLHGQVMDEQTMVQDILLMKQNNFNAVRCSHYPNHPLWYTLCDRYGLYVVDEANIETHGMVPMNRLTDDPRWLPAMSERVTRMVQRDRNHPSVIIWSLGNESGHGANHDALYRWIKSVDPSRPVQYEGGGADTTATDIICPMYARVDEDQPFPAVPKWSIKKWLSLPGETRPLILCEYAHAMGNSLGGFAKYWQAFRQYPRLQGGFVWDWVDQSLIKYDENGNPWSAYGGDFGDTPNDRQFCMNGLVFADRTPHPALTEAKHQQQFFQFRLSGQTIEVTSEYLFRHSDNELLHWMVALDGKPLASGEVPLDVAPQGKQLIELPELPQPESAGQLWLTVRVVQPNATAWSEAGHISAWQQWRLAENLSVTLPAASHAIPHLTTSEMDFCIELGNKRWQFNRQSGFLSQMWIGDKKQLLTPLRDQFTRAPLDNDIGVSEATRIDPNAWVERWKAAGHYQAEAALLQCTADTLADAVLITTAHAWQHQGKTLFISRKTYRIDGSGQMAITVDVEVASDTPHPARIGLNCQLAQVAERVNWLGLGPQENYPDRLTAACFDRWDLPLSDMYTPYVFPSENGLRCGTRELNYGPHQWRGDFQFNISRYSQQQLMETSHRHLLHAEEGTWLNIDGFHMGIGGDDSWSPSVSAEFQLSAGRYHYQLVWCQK

[12] = inhibitors of SNCA 5'UTR-driven reporter translation, confirmation, H4 neuroglioma cells, luminescence (AID 1988); format: functional, cell-based
[13] = molecular target: Exodeoxyribonuclease V (Escherichia coli (strain K12), UniProt P04993+P07648+P08394); assay: E. coli RecBCD inhibitors, dose response, counter-screen for AddAB inhibitor project, absorbance, V66 E. coli, mutant T4 phage (AID 492957); format: functional, cell-based, Escherichia coli str. K-12 substr. MG1655
[14] = test system: BJ; assay: cells; format: functional, cell-based; conditions: Homo sapiens
[15] = Luminescence Cell-Based Dose Response HTS to Identify Inhibitors of 5'UTR Stem-Loop Driven Prion Protein mRNA Translation in H4 Neuroglioblastoma Cells. [Related pubchem assays: 1827 (Project Summary), 1813 (Primary HTS)]; format: functional
[16] = cytotoxicity toward DRD oncogenic fibroblasts, dose response, cell-based, non-viral oncogenic, luminescence (AID 1934); format: functional; conditions: Homo sapiens
[17] = test system: Streptococcus; assay: Group A Streptococcus viability loss, dose response, counter-screen for streptokinase expression inhibitor project, luminescence, BacTiterGlo (AID 1915); format: functional, organism-based;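 also: potency for reduction of bacterial viability or growth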
[18] = molecular target: Ephrin type-A receptor 4 (Mus musculus, UniProt Q03137); assay: inhibitors of EphA4 binding to KYL peptide, primary screen, biochemical, colorimetric, mouse EphA4 (AID 689); format: functional
Ephrin type-A receptor 4, sequence (Q03137 whole entry): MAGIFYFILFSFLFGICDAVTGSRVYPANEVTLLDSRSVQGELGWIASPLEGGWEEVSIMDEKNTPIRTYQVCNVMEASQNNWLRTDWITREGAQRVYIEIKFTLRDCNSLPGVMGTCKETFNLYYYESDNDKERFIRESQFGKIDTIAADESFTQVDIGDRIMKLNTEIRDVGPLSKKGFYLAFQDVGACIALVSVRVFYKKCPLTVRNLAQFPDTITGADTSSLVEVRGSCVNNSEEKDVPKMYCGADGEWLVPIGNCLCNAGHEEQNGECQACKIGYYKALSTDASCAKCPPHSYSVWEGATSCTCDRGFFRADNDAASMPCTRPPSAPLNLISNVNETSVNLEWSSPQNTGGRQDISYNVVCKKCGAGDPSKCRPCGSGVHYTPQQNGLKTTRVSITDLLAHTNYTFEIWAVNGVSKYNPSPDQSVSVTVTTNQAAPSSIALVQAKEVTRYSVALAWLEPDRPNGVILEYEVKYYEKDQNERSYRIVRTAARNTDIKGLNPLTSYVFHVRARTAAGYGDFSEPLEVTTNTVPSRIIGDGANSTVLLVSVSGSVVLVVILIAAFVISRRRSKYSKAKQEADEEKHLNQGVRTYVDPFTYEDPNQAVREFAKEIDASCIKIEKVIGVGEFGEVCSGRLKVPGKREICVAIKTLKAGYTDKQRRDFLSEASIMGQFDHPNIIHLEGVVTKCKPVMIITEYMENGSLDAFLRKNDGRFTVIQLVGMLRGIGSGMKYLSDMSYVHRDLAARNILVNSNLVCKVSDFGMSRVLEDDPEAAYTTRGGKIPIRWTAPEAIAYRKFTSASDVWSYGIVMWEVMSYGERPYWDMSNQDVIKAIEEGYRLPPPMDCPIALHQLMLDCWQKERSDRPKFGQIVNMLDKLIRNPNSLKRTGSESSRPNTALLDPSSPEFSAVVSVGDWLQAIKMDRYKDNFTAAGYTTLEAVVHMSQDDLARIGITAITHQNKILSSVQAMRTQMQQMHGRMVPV

[19] = Counterscreen for AddAB inhibitors: absorbance-based bacterial cell-based high throughput dose response assay for inhibitors of bacterial viability. [Related pubchem assays (depositor defined):AID435030, AID449728, AID449731, AID488942, AID488955, AID488956]; format: functional
[20] = test system: BJ; assay: cytotoxicity toward BJ-TERT fibroblasts, dose response, cell-based, RAS-independent, luminescence (AID 1933); format: functional; conditions: Homo sapiens
[21] = molecular target: T1, Streptokinase A (Streptococcus pyogenes serotype M1, UniProt P10520); assay: S. pyogenes streptokinase expression inhibitors, potency, dose response, plasminogen activation absorbance, OD405 (AID 1914); format: functional, Streptococcus pyogenes M1 GAS;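 also: secreted streptokinase activity via plasminogen activation per viability signal from cell pellet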
T1 sequence (P10520 whole entry): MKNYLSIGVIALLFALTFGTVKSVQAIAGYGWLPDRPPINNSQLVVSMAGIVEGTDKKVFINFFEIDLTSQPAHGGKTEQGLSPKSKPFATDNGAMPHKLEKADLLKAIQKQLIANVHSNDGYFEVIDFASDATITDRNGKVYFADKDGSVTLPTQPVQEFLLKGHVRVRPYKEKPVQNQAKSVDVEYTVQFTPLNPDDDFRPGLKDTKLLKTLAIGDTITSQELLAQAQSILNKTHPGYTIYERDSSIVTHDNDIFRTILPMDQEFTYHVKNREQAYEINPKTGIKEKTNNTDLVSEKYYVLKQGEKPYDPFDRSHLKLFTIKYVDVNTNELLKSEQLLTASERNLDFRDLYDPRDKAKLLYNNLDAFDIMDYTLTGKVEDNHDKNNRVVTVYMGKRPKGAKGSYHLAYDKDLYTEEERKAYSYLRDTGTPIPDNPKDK

[22] = molecular target: T2, Kappa-type opioid receptor (Homo sapiens, UniProt P41145); format: functional
T2 sequence (P41145 whole entry): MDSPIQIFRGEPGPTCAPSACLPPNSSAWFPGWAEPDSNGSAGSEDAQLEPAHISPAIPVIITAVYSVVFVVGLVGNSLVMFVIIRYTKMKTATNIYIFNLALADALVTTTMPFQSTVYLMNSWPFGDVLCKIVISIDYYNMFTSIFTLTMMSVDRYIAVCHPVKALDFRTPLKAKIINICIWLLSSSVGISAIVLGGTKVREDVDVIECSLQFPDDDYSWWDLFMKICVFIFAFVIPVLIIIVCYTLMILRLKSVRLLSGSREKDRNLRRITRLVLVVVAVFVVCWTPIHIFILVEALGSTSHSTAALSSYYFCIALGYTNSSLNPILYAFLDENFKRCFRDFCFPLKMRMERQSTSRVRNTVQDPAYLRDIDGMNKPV

[23] = molecular target: T2, Kappa-type opioid receptor; format: functional; remark: listed apart in the source
[24] = cells; format: functional, cell-based; remark: listed apart in the source
[25] = molecular target: T3, Heat shock factor protein 1 (Mus musculus, UniProt P38532); assay: HSF1 potentiators in luciferase reporter cells, confirmation, cell-based, NIH3T3, luminescence, dose retest (AID 435004); format: functional;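 also: stress induced by proteasome inhibitor MG132 added 30 min after compound; luciferase reporter driven by HSF1 response element in NIH3T3 cells; actives raise luminescence as potentiators of the MG132 stress response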
T3 sequence (P38532 whole entry): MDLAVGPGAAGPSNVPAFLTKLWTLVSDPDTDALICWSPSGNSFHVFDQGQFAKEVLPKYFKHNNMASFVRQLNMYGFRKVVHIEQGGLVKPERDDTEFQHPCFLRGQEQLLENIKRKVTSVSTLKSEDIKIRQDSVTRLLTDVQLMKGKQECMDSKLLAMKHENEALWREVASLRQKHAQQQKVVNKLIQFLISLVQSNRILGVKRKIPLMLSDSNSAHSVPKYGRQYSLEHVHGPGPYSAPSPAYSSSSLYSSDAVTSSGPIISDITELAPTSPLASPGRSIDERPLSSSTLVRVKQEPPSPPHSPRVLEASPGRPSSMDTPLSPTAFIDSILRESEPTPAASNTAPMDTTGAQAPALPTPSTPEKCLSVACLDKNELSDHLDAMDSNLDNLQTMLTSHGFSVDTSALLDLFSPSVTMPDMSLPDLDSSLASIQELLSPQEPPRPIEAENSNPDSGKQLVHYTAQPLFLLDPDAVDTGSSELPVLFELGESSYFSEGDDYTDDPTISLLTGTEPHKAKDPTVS

[26] = growth suppression of beta-catenin-knockout colon cells, dose response, cell-based, HCT116, human colon tumor (AID 1045); format: functional;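 also: HCT116 colon tumor cells with beta catenin knocked out; cells exposed to compound for 60 hours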
[27] = growth suppression of PTEN-null colon cells, dose response, cell-based, HCT116 PTEN knockout (AID 1047); format: functional;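 also: HCT116 colon tumor cells with PTEN knocked out; cells exposed to compound for 60 hours before readout; potency for loss of cell viability measured by luminescence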
[28] = molecular target: X-box-binding protein 1 (Homo sapiens, UniProt P17861); format: functional, Cricetulus griseus;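 also: confirmatory dose-response counter-screen serving a CHOP assay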
X-box-binding protein 1, sequence (P17861 whole entry): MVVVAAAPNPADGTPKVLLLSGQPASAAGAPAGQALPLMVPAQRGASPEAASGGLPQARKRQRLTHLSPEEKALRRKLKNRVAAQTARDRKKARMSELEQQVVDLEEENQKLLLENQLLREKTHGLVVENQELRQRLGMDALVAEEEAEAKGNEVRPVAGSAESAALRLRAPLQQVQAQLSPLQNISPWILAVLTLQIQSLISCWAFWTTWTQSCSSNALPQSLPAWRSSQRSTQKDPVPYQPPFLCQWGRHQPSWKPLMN

[29] = molecular target: T4, CAAX prenyl protease 2 (Saccharomyces cerevisiae S288c, UniProt Q03530); format: biochemical
T4 sequence (Q03530 whole entry): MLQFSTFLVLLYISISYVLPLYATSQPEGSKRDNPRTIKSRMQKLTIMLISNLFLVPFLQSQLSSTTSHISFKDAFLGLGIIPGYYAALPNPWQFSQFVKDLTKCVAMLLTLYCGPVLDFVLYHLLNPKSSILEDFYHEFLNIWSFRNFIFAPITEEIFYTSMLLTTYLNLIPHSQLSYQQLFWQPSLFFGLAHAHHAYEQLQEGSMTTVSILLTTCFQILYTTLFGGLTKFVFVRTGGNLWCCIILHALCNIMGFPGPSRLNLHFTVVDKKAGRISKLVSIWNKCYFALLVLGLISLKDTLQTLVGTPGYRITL

[30] = molecular target: Trypsin (Sus scrofa, UniProt P00761); assay: porcine trypsin inhibitors, dose response, selectivity assay for Rce1 protease inhibitor project, biochemical, quenched peptide fluorescence, cherry-pick (AID 488789)
Trypsin, sequence (P00761 whole entry): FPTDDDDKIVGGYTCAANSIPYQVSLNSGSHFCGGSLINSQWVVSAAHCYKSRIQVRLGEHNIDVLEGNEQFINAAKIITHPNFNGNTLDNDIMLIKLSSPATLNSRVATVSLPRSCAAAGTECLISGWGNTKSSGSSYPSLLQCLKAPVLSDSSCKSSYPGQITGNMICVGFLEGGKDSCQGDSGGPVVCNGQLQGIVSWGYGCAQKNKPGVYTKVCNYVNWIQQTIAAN

Serine hydrolase RBBP9, sequence (O75884 whole entry): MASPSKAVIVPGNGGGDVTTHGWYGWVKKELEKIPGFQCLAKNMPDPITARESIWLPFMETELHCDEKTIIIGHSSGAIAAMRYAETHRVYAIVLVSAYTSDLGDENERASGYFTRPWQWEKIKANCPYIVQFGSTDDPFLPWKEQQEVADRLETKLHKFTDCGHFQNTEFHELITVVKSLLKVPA

In the case of `C/C(=N\OC(=O)c1ccccc1)c1nccs1`, the IC50 [1] is reported as 5 µM (active).

With `COc1ccc2ccccc2c1C(=O)/C=C/c1cccnc1` the EC50 [2] was > 8 µM (not active), the EC50 [3] was 0.644 µM (active) and the EC50 [4] was 3.5 µM (active). The EC50 [5] was 8.48 µM (inactive).

In the case of `Oc1c(N=Nc2ccccn2)ccc2ccccc12`, the EC50 [6] is reported as 2.99 µM (inconclusive), the EC50 [7] is reported as 2.84 µM (active) and the AC50 [8] is reported as 0.375 µM (active). For the same compound, the EC50 [9] was 2.67 µM (active), the EC50 [10] was > 350 µM (not active) and the EC50 [11] was 14.5 µM (active). The EC50 [12] was 7.46 µM (active), the IC50 [13] was > 119 µM (inactive) and the EC50 [14] was 2.76 µM (inconclusive). For the same compound, the EC50 [15] was 9.75 µM (active), the EC50 [16] was 3.59 µM (active) and the EC50 [17] was 25.1 µM (active). The IC50 [18] was 13.8 µM (active), the IC50 [19] was > 119 µM (inactive) and the EC50 [20] was 2.8 µM (active). For the same compound, the EC50 [21] was > 150 µM (not active), the IC50 [22] was greater than 32 µM and the IC50 [23] was 2.32 µM (active). For the same compound, the EC50 [24] was 6.46 µM (active) and the EC50 [25] was 9.82 µM (active).

For `NC(N)=C1C(=O)N(C2CCCCC2)C(=O)N(C2CCCCC2)C1=O`, the EC50 [26] was 25.5 µM (active), the EC50 [27] was 24 µM (active) and the “Absolute IC50 (XBP1)” value [28] was 10 µM.

With `O=C1c2cccc(OCC(=O)N3N=C(c4cccs4)CC3c3ccc(F)cc3)c2CCN1Cc1cccnc1` (stereo not given) the AC50 [29] was 13.1 µM (active) and the AC50 [30] was 12.9 µM (active).
